The values below come from patent US20100249107A1, “Biomarkers for Alzheimer's Disease Progression” (priority 2006, published 2010).

The test concerns patients suffering from MCI. The test is described as follows: InDDEx (ENA713B IA07) clinical trial: conversion from MCI to AD. Format: in vivo, human. An excerpt:
Introduction and summary. The purpose of this EXAMPLE is to describe genetic association studies identifying twenty-five (25) AD-associated mutations of the invention. Genome-wide analyses for genetic association studies have only become possible within the past two years. The Investigation Into Delay to Diagnosis of Alzheimer's Disease With Exelon (InDDex; ENA713B IA07) clinical trial followed patients suffering from MCI and given either Exelon (rivastigmine) at various doses or placebo and followed their conversion to AD.

For `CCN(C)C(=O)Oc1cccc([C@H](C)N(C)C)c1` [Exelon, rivastigmine], the “Converted to AD, %” value (All patients (enrolled in and completed the clinical study), Exelon arm n = 508) is 17.32%; the “Converted to AD, %” value (Genome scan population (consented for pharmacogenetic study and passed the 100K scan), Exelon arm n = 211) is 17.06%.
